Activity calls are given as the source filed them.
Columns and labels:
Type in all cases: functional
[1] = tested on: SF-295; test: Cytotoxicity against human SF295 cells assessed as cell growth at 10 uM after 48 hrs by sulforhodamine B assay
[2] = tested on: RPMI-8226; test: Cytotoxicity against human RPMI8226 cells assessed as cell growth at 10 uM after 48 hrs by sulforhodamine B assay
[3] = tested on: MOLT-4; test: Cytotoxicity against human MOLT4 cells assessed as cell growth at 10 uM after 48 hrs by sulforhodamine B assay
[4] = tested on: K562; test: Cytotoxicity against human K562 cells assessed as cell growth at 10 uM after 48 hrs by sulforhodamine B assay
[5] = tested on: NCI-H522; test: Cytotoxicity against human NCI-H522 cells assessed as cell growth at 10 uM after 48 hrs by sulforhodamine B assay
[6] = tested on: HT-29; test: Cytotoxicity against human HT-29 cells assessed as cell growth at 10 uM after 48 hrs by sulforhodamine B assay
[7] = tested on: PC-3; test: Cytotoxicity against human PC3 cells assessed as cell growth at 10 uM after 48 hrs by sulforhodamine B assay
[8] = tested on: UACC-62; test: Cytotoxicity against human UACC62 cells assessed as cell growth at 10 uM after 48 hrs by sulforhodamine B assay
[9] = tested on: HL-60(TB); test: Cytotoxicity against human HL-60(TB) cells assessed as cell growth at 10 uM after 48 hrs by sulforhodamine B assay
[10] = tested on: SR; test: Cytotoxicity against human SR cells assessed as cell growth at 10 uM after 48 hrs by sulforhodamine B assay
[11] = tested on: EKVX; test: Cytotoxicity against human EKVX cells assessed as cell growth at 10 uM after 48 hrs by sulforhodamine B assay
[12] = tested on: SK-MEL-2; test: Cytotoxicity against human SK-MEL-2 cells assessed as cell growth at 10 uM after 48 hrs by sulforhodamine B assay
[13] = tested on: OVCAR-4; test: Cytotoxicity against human OVCAR4 cells assessed as cell growth at 10 uM after 48 hrs by sulforhodamine B assay
[14] = tested on: T47D; test: Cytotoxicity against human T47D cells assessed as cell growth at 10 uM after 48 hrs by sulforhodamine B assay
[15] = tested on: A549; test: Cytotoxicity against human A549 cells assessed as cell growth at 10 uM after 48 hrs by sulforhodamine B assay
[16] = tested on: HOP-62; test: Cytotoxicity against human HOP62 cells assessed as cell growth at 10 uM after 48 hrs by sulforhodamine B assay
[17] = tested on: HOP-92; test: Cytotoxicity against human HOP92 cells assessed as cell growth at 10 uM after 48 hrs by sulforhodamine B assay
[18] = tested on: NCI-H322M; test: Cytotoxicity against human NCI-H322M cells assessed as cell growth at 10 uM after 48 hrs by sulforhodamine B assay
[19] = tested on: NCI-H460; test: Cytotoxicity against human NCI-H460 cells assessed as cell growth at 10 uM after 48 hrs by sulforhodamine B assay
[20] = tested on: NCI-H226; test: Cytotoxicity against human NCI-H226 cells assessed as cell growth at 10 uM after 48 hrs by sulforhodamine B assay
[21] = tested on: NCI-H23; test: Cytotoxicity against human NCI-H23 cells assessed as cell growth at 10 uM after 48 hrs by sulforhodamine B assay
[22] = tested on: COLO 205; test: Cytotoxicity against human COLO205 cells assessed as cell growth at 10 uM after 48 hrs by sulforhodamine B assay
[23] = tested on: HCC 2998; test: Cytotoxicity against human HCC2998 cells assessed as cell growth at 10 uM after 48 hrs by sulforhodamine B assay
[24] = tested on: HCT-116; test: Cytotoxicity against human HCT116 cells assessed as cell growth at 10 uM after 48 hrs by sulforhodamine B assay
[25] = tested on: HCT-15; test: Cytotoxicity against human HCT15 cells assessed as cell growth at 10 uM after 48 hrs by sulforhodamine B assay
[26] = tested on: KM12; test: Cytotoxicity against human KM12 cells assessed as cell growth at 10 uM after 48 hrs by sulforhodamine B assay
[27] = tested on: SW-620; test: Cytotoxicity against human SW620 cells assessed as cell growth at 10 uM after 48 hrs by sulforhodamine B assay
[28] = tested on: MCF7; test: Cytotoxicity against human MCF7 cells assessed as cell growth at 10 uM after 48 hrs by sulforhodamine B assay
[29] = tested on: MDA-MB-468; test: Cytotoxicity against human MDA-MB-468 cells assessed as cell growth at 10 uM after 48 hrs by sulforhodamine B assay
[30] = tested on: MDA-MB-231; test: Cytotoxicity against human MDA-MB-231 cells assessed as cell growth at 10 uM after 48 hrs by sulforhodamine B assay
[31] = tested on: Hs-578T; test: Cytotoxicity against human Hs 578T cells assessed as cell growth at 10 uM after 48 hrs by sulforhodamine B assay
[32] = tested on: BT-549; test: Cytotoxicity against human BT549 cells assessed as cell growth at 10 uM after 48 hrs by sulforhodamine B assay
[33] = tested on: IGROV-1; test: Cytotoxicity against human IGROV1 cells assessed as cell growth at 10 uM after 48 hrs by sulforhodamine B assay
[34] = tested on: OVCAR-3; test: Cytotoxicity against human OVCAR-3 cells assessed as cell growth at 10 uM after 48 hrs by sulforhodamine B assay
[35] = tested on: OVCAR-5; test: Cytotoxicity against human OVCAR5 cells assessed as cell growth at 10 uM after 48 hrs by sulforhodamine B assay
[36] = tested on: OVCAR-8; test: Cytotoxicity against human OVCAR8 cells assessed as cell growth at 10 uM after 48 hrs by sulforhodamine B assay
[37] = tested on: SK-OV-3; test: Cytotoxicity against human SKOV3 cells assessed as cell growth at 10 uM after 48 hrs by sulforhodamine B assay
[38] = tested on: CCRF-CEM; test: Cytotoxicity against human CCRF-CEM cells assessed as cell growth at 10 uM after 48 hrs by sulforhodamine B assay
[39] = tested on: 786-0; test: Cytotoxicity against human 786-0 cells assessed as cell growth at 10 uM after 48 hrs by sulforhodamine B assay
[40] = tested on: A498; test: Cytotoxicity against human A498 cells assessed as cell growth at 10 uM after 48 hrs by sulforhodamine B assay
[41] = tested on: ACHN; test: Cytotoxicity against human ACHN cells assessed as cell growth at 10 uM after 48 hrs by sulforhodamine B assay
[42] = tested on: SN12C; test: Cytotoxicity against human SN12C cells assessed as cell growth at 10 uM after 48 hrs by sulforhodamine B assay
[43] = tested on: RXF 393; test: Cytotoxicity against human RXF393 cells assessed as cell growth at 10 uM after 48 hrs by sulforhodamine B assay
[44] = tested on: TK-10; test: Cytotoxicity against human TK10 cells assessed as cell growth at 10 uM after 48 hrs by sulforhodamine B assay
[45] = tested on: UO-31; test: Cytotoxicity against human UO31 cells assessed as cell growth at 10 uM after 48 hrs by sulforhodamine B assay
[46] = tested on: LOX IMVI; test: Cytotoxicity against human LOXIMVI cells assessed as cell growth at 10 uM after 48 hrs by sulforhodamine B assay
[47] = tested on: M14; test: Cytotoxicity against human M14 cells assessed as cell growth at 10 uM after 48 hrs by sulforhodamine B assay
[48] = tested on: Malme-3M; test: Cytotoxicity against human MALME-3M cells assessed as cell growth at 10 uM after 48 hrs by sulforhodamine B assay
[49] = tested on: MDA-MB-435; test: Cytotoxicity against human MDA-MB-435 cells assessed as cell growth at 10 uM after 48 hrs by sulforhodamine B assay
[50] = tested on: SK-MEL-28; test: Cytotoxicity against human SK-MEL-28 cells assessed as cell growth at 10 uM after 48 hrs by sulforhodamine B assay
[51] = tested on: SK-MEL-5; test: Cytotoxicity against human SK-MEL-5 cells assessed as cell growth at 10 uM after 48 hrs by sulforhodamine B assay
[52] = tested on: UACC-257; test: Cytotoxicity against human UACC257 cells assessed as cell growth at 10 uM after 48 hrs by sulforhodamine B assay
[53] = tested on: DU-145; test: Cytotoxicity against human DU145 cells assessed as cell growth at 10 uM after 48 hrs by sulforhodamine B assay
[54] = tested on: SF-268; test: Cytotoxicity against human SF268 cells assessed as cell growth at 10 uM after 48 hrs by sulforhodamine B assay
[55] = tested on: SF-539; test: Cytotoxicity against human SF539 cells assessed as cell growth at 10 uM after 48 hrs by sulforhodamine B assay
[56] = tested on: SNB-19; test: Cytotoxicity against human SNB19 cells assessed as cell growth at 10 uM after 48 hrs by sulforhodamine B assay
[57] = tested on: SNB-75; test: Cytotoxicity against human SNB75 cells assessed as cell growth at 10 uM after 48 hrs by sulforhodamine B assay
[58] = tested on: U-251; test: Cytotoxicity against human U251 cells assessed as cell growth at 10 uM after 48 hrs by sulforhodamine B assay

Measured: Activity

Cc1c(OCc2nnc(S)o2)ccc2c(-c3ccccc3)cc(=O)oc12
inactive: all assays above

CCCc1cc(=O)oc2cc(OCc3nnc(S)o3)ccc12
inactive: all assays above

Reference: ChEMBL document CHEMBL1240439, “Synthesis and docking studies of novel benzopyran-2-ones with anticancer activity” (2010)
